“And” between values parts separate entries of the source, which are not always exact repeats. Identical values can stand only once.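 In this assay, cells in 96-well plates receive the compound at five concentrations for 48 hours. Endpoints are linearly interpolated between the surrounding concentrations. Abbreviation: GI50, concentration required for 50% inhibition of growth. TGI marks complete inhibition of growth.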
Columns and labels:
Test in all cases: growth of human tumour cells (NCI), 48 h
SK-MEL-28 melanoma = test system: SK-MEL-28 melanoma
SF-539 CNS = test system: SF-539 CNS
IGROV1 ovarian = test system: IGROV1 ovarian
SK-OV-3 ovarian = test system: SK-OV-3 ovarian
HCC-2998 colon = test system: HCC-2998 colon
SF-295 CNS = test system: SF-295 CNS
NCI-H460 lung = test system: NCI-H460 lung
UO-31 renal = test system: UO-31 renal
MDA-MB-231 breast = test system: MDA-MB-231 breast
NCI/ADR-RES ovarian = test system: NCI/ADR-RES ovarian

Row | SMILES | TGI (SK-MEL-28 melanoma) | TGI (SF-539 CNS) [µM] | TGI (IGROV1 ovarian) | TGI (SK-OV-3 ovarian) | TGI (HCC-2998 colon) [µM] | TGI (SF-295 CNS) [µM] | TGI (NCI-H460 lung) [µM] | TGI (UO-31 renal) [µM] | GI50 (SK-MEL-28 melanoma) | TGI (MDA-MB-231 breast) [µM] | GI50 (SF-539 CNS) [µM] | GI50 (SK-OV-3 ovarian) [µM] | GI50 (HCC-2998 colon) [µM] | GI50 (SF-295 CNS) [µM] | GI50 (NCI/ADR-RES ovarian) [µM] | TGI (NCI/ADR-RES ovarian) [µM] | GI50 (NCI-H460 lung) [µM] | GI50 (UO-31 renal) [µM] | GI50 (IGROV1 ovarian) | GI50 (MDA-MB-231 breast) [µM]
1 | Cc1ccc(S(=O)(=O)NC(=O)NCCc2ccccc2)cc1 | > 100 µM | > 100 | > 100 µM | > 100 µM | > 100 | > 100 | > 100 | > 100 | – | – | – | – | – | – | – | – | – | – | – | –
2 | C[N+](C)(C)CC1CCC(C[N+](C)(C)C)C1=O (stereo not given) | 11.1 µM | 15.5 | 13.6 µM | 42 µM | 22.5 | 35.9 | 62.8 | 8.51 | 5.99 µM | 41.3 | – | – | – | – | – | – | – | – | – | –
3 | O=c1c2ccccc2[nH]c2c(O)ccc(O)c12 | 35.2 µM | 75.3 | 35.3 µM | 65.9 µM | > 100 | 38.5 | 50.9 | > 79.9 | – | – | – | – | – | – | – | – | – | – | – | –
4 | CCOC(=O)C1C=C2O[C@@H]3OC4(CCCCC4)O[C@@H]3C2C2C(=O)CCC(=O)[C@@]12C(=O)OC (stereo not given in full) | > 100 µM | – | > 100 µM | > 100 µM | > 100 | > 100 | > 100 | > 100 | – | – | – | – | – | – | – | – | – | – | – | –
5 | Cc1cccc(C)c1NC(=O)CCC/C(CC(=O)c1ccc(F)cc1)=N\NC(=O)C(=O)NN | > 100 µM | > 100 | > 100 µM | > 100 µM | > 100 | > 100 | > 100 | > 100 | – | – | – | – | – | – | – | – | – | – | – | –
6 | O=[P+](O)c1ccccn1 | > 100 µM | > 100 | > 100 µM | > 100 µM | > 100 | > 100 | > 100 | > 100 | – | – | – | – | – | – | – | – | – | – | – | –
7 | C1OC1CN1CCN(CC2CO2)CC1 (stereo not given) | > 100 µM | > 100 | > 100 µM | > 100 µM | > 100 | > 100 | > 100 | > 100 | – | – | – | – | – | – | – | – | – | – | – | –
8 | Cc1coc2c1C(=O)C(=O)c1ccccc1-2 | 3.09 µM | 2.88 | 3.44 µM | 3.25 µM | 3.35 | 3.03 | 3.18 | 10.4 | – | – | – | – | – | – | – | – | – | – | – | –
9 | Cn1c(=O)nc2n(-c3ccc(Cl)cc3)c(-c3ccccc3)c(-c3ccccc3)nc-2c1=O | 86.2 µM | 71.5 | > 100 µM | > 100 µM | > 100 | > 100 | 62.5 | 60.7 | – | – | – | – | – | – | – | – | – | – | – | –
10 | CC(C)(C)c1cc(C(=O)Nc2ccc(C(=O)NCCN)cc2)cc(C(C)(C)C)c1 | 3.67 µM | 3.41 | – | 20.7 µM | 3.18 | 3.47 | 3.73 | 22 | 1.79 µM | – | 1.68 | 5.31 | 1.69 | 1.73 | 14.7 | 35 | 1.93 | 4.68 | – | –
11 | Cc1cc(N(CCC#N)CCC#N)ccc1N=Nc1cc(Cl)ccc1Cl | 21.1 µM | 19.4 | 28.6 µM | 29.9 µM | 32.9 | 34.9 | – | 30.9 | – | – | – | – | – | – | – | – | – | – | – | –
12 | CCN(CC)c1c(-c2ccccc2)n[nH]c1C(=O)OC | > 100 µM | 36.5 | > 100 µM | 50.5 µM | – | – | > 100 | > 100 | 22.2 µM | 60.4 | 20.1 | 17.4 | – | – | 19.2 | 37.4 | 30.3 | 46.5 | 50.8 µM | 35.8
13 | CN(C)CCC(/C=C/c1ccccc1)=N\Nc1ccc(Cl)c(Cl)c1 | 22.6 µM | 4.17 | 10.1 µM | 15.5 µM | – | 11.2 | 4.25 | 3.41 | – | – | – | – | – | – | – | – | – | – | – | –
14 | CCC/C=C\C=C\C1(NS(=O)(=O)c2ccc(C)cc2)CCC(C(C)(C)C)CC1 (stereo not given) | – | > 100 | 87.3 µM | 65.2 µM | 34.3 | 51.2 | 36.2 | 59 | – | – | – | – | – | – | – | – | – | – | – | –
15 | C/C(=N\NC(N)=S)c1ccc(C)c(C)c1 | > 100 µM | > 100 | > 100 µM | > 100 µM | > 100 | > 100 | > 100 | > 100 | – | – | – | – | – | – | – | – | – | – | – | –
16 | Cc1cccc(C)c1NC(=O)CCc1nnc2s/c(=C\c3ccc(N(C)C)cc3)c(=O)n12 | > 100 µM | > 100 | > 100 µM | > 100 µM | > 100 | > 100 | > 100 | > 100 | – | – | – | – | – | – | – | – | – | – | – | –
17 | CC(C)(C)OC(=O)NCCCCn1c2c(c3ccccc3c1=O)C(=O)c1ccccc1-2 | > 100 µM | 62.8 | > 100 µM | > 100 µM | – | 56.1 | 34.8 | > 100 | 38.2 µM | 53.1 | 25.9 | 50.2 | – | 16.5 | 15.7 | 45.7 | 5.9 | 8.29 | 23 µM | 17.1
18 | N#CC1=C(N)NC(=S)NC1c1ccc(-c2ccc(-c3nc4ccccc4o3)cc2)s1 (stereo not given) | – | – | 12.7 µM | 31 µM | – | 38.8 | 15.9 | 17 | – | 16.4 | – | 11 | – | 13.3 | 12.1 | 30.1 | 7.58 | 7.89 | 2.21 µM | 7.16
19 | O=C1/C(=C/c2ccc3c(c2)OCCO3)CCC/C1=C\c1ccc2c(c1)OCCO2 | 77.2 µM | 38.6 | > 100 µM | > 100 µM | > 100 | 57.3 | 65.6 | > 100 | – | – | – | – | – | – | – | – | – | – | – | –
20 | Nc1ncnc2c1ncn2C1OC(COS(N)(=O)=O)C(O)C1O (stereo not given) | 0.00521 µM and 0.0509 µM | – | 0.00781 µM and 0.065 µM | 0.00784 µM and 0.0758 µM | – | – | – | – | 0.00225 µM and 0.0221 µM | – | – | – | – | – | – | – | – | – | 0.00291 µM and 0.0248 µM | < 0.001
21 | O=c1c2cc(Br)cc(Br)c2nc(CCCl)n1-c1ccc(O)c([N+](=O)[O-])c1 | 35.4 µM | 37.1 | 40.4 µM | 29.5 µM | 32.4 | 45 | 42.1 | 33.9 | – | – | – | – | – | – | – | – | – | – | – | –
22 | COc1ccc(C(C)c2cc(OC)c(OC)c(OC)c2)cc1 (stereo not given) | > 50 µM | – | > 50 µM | > 50 µM | > 50 | > 50 | > 50 | > 50 | 25.2 µM | > 50 | – | 0.159 | 0.21 | 0.0752 | 0.0574 | > 50 | 0.177 | 0.409 | 0.278 µM | 0.341
23 | CCc1cccc(C(C)C)c1NC(=O)CCl | > 100 µM | > 100 | > 100 µM | > 100 µM | – | > 100 | – | > 100 | – | – | – | – | – | – | – | – | – | – | – | –

Source: PubChem BioAssay (NCI)
